Where a name gives a salt, the structure may show the parent alone. Read-outs that look alike come from different tables or passages of the source.
Columns and labels:
[1] = test system: TNF-α; assay: Serum TNF-α (ELISA) in septic mice after cecal ligation and puncture; format: in vivo, BALB/c mice; conditions: for decrease of serum level TNF-α compared to vehicle control: blood 6 h after treatment
Procedure: (§1) Cecal Ligation and Puncture (CLP) was performed as described in Fink and Heard, J. of Surg. Res. 49:186-196 (1990), Wichman et al., Crit. Care Med. 26:2078-2086 (1998) and Remick et al., Shock 4:89-95 (1995). Briefly, BALB/c mice were anesthetized with 100 mg/kg ketamine (Fort Dodge, Fort Dodge, Iowa) and 10 mg/kg of xylazine (Bohringer Ingelheim, St. Joseph, Mo.) intramuscularly. A midline incision was performed, and the cecum was isolated. A 6-0 prolene suture ligature was placed at a level 5.0 mm from the cecal tip away from the ileocecal valve.
The ligated cecal stump was then punctured once with a 22-gauge needle, and 2mm stool extruded. The cecum was then placed back into its normal intra-abdominal position. The abdomen was then closed with a running suture of 6-0 prolene in two layers, peritoneum and fascia separately to prevent leakage of fluid. All animals were resuscitated with a normal saline solution administered sub-cutaneously at 20 ml/kg of body weight. Each mouse received a subcutaneous injection of imipenem (0.5 mg/mouse) (Primaxin, Merck & Co., Inc., West Point, Pa.) 30 minutes after the surgery. Animals were then allowed to recuperate.
Twenty-four hours after surgery, mice were intraperitoneally administered either 0.01 mg/kg or 0.1 mg/kg Galantamine Hydrobromide (CalBioChem, San Diego, Calif.) or vehicle control (saline). Galantamine was prepared in saline to a final concentration of 10 mg/ml. Mice were euthanized 6 hours after treatment with Galantamine or vehicle control (30 hours after surgery) and blood was collected by cardiac puncture for TNF-α measurement. TNF-α was measured by ELISA (mouse ELISA kit from R&D Systems Inc., Minneapolis, Minn.).
Cecal ligation and puncture were performed as described above. Randomly selected mice were treated intraperitoneally with vehicle (saline, 200 ul) or tacrine (2.5 μg/kg or 0.25 μg/kg) twice daily for 3 days, starting 24 hours after surgery. Mice were monitored for survival twice daily for three weeks. […] TNF was measured by ELISA as discussed above. HMGB1 was measured in sera by Western blot as discussed above.

[2] = test system: HMGB1; assay: Serum HMGB1 (western blot) in septic mice after cecal ligation and puncture; format: in vivo
Procedure: as §1
The ligated cecal stump was then punctured once with a 22-gauge needle, and 2mm stool extruded. The cecum was then placed back into its normal intra-abdominal position. The abdomen was then closed with a running suture of 6-0 prolene in two layers, peritoneum and fascia separately to prevent leakage of fluid. […]
Cecal Ligation and Puncture (CLP) was performed as described above in Example 1. […] HMGB1 was measured by western blot using anti-HMG1 polyclonal antisera (U.S. Pat. No. 6,303,321) and standard methods. Band densities were measured using a Bio-Rad Imaging densitometer. […]
Cecal ligation and puncture were performed as described above. […] Mice were monitored for survival twice daily for three weeks. […] TNF was measured by ELISA as discussed above. HMGB1 was measured in sera by Western blot as discussed above.

[3] = test system: murine CLP model of sepsis; format: in vivo, mice
[4] = test system: TNF-α; assay: Serum TNF-α in endotoxemic rats after intracerebroventricular administration; format: in vivo; conditions: ICV 1 hour before endotoxemia, doses tested 1-1000 ng/kg, dose of the result not stated
Procedure: Endotoxemia was induced in rats via intraperitoneal (IP) injection of endotoxin (lipopolysaccharide, LPS; E. coli 0111:B4, Sigma; 10 mg/ml in PBS) (10-30 mg/kg, IP). Rats were anesthetized with ketamine (10%) in xylazine and placed in a stereotatic head frame (Stoelting Co.). The incisor bar was adjusted until the plane defined by the lambda and bregma was parallel to the base plate. The needle of a Hamilton syringe ([…]) was stereotactically guided into lateral ventricle (0.8 mm posterior to bregma, 1.5 mm lateral to midline, 3.5 mm below the dura). Galantamine at 1, 10, 100 and 1000 ng/kg was dissolved in sterile endotoxin-free saline and administered over 2 min. Vehicle control (saline) was also administered over 2 min. The location of intracerebroventricular (i.c.v.) injections was confirmed by histological examination of the brain after the experiment. TNF-α was measured as described above.

[5] = test system: TNF; assay: Serum TNF (ELISA) in endotoxemic mice; format: in vivo, BALB/c mice
Procedure: Male BALB/c mice were injected intraperitoneally with 6 mg/kg endotoxin (lipopolysaccharide, E. coli 0111:B4, Sigma, St. Louis, Mo.; 10 mg/ml in pyrogen-free saline), which had been sonicated for 30 min. Galantamine (CalBioChem, San Diego, Calif.) at doses of 0.1, 1, 2 or 4 mg/kg or vehicle control were injected intraperitoneally one hour before endotoxin administration in anesthetized animals. One and half hours after endotoxin exposure, blood was harvested for TNF measurement.
Blood was centrifuged at 5,000 rpm (1,500×g) for 15 min and the supernatants were collected for TNF determination. Serum and supernatants were used for TNF protein analysis by ELISA (R&D Systems Inc., Minneapolis, Minn.) according to the manufacturer's instructions.

[6] = test system: murine model of lethal endotoxemia; format: in vivo, mice; conditions: for mice survived: 14 days after endotoxin, vehicle none survived
[7] = 2.5 μg/kg i.p. 24 h after CLP, blood 6 h later

**Q.** `Nc1c2c(nc3ccccc13)CCCC2` [Tacrine] was tested. Which “effect on serum TNF in septic mice” value [1, 7] did it give?
**A.** significantly reduced

**Q.** What about the “effect on serum HMGB1 in septic mice” value [2, 7] of the same compound?
**A.** significantly reduced

**Q.** What about the “effect on survival in mice with polymicrobial sepsis” value ([3]; mouse, in vivo, ip) of the same compound?
**A.** significantly improved survival

**Q.** And the mice survived ([3]; mouse, in vivo, ip)?
**A.** all

**Q.** What about the “survival from lethal sepsis” value ([3]; mouse, in vivo, ip) of the same compound?
**A.** 100%

**Q.** What does the source list for `COc1ccc2c3c1O[C@H]1C[C@@H](O)C=C[C@@]31CCN(C)C2` [Galantamine]?
**A.** decrease of serum level TNF-α compared to vehicle control ([1]; 0.01 mg/kg i.p. 24 h after CLP): approximately 50%; decrease of serum level TNF-α compared to vehicle control ([1]; 0.1 mg/kg i.p. 24 h after CLP): ~80%; decrease of serum level of HMGB1 compared to vehicle control ([2]; 0.1 mg/kg i.p. 24 h after CLP, blood 6 h after treatment): about 50%; survival from lethal sepsis ([3]; 10 μg/kg i.p. twice daily, 3 days, from 24 h after CLP, monitored 3 weeks, vehicle 37%): 58%; survival from lethal sepsis ([3]; 100 μg/kg i.p. twice daily, 3 days, from 24 h after CLP, monitored 3 weeks, vehicle 37%, p<0.05): 90%; mice survived ([3]; Day 6, 10 ug/kg i.p. twice a day for 3 days from 24 h after CLP, vehicle 37%): 58%; mice survived ([3]; Day 6, 100 ug/kg i.p. twice a day for 3 days from 24 h after CLP, vehicle 37%): 90%; decrease of serum level TNF-α compared to vehicle control [4]: approximately 94%; inhibition of serum TNF in endotoxemic mice ([5]; 2 mg/kg i.p. 1 h before endotoxin): nearly two-fold inhibition; inhibition of serum TNF in endotoxemic mice ([5]; 4 mg/kg i.p. 1 h before endotoxin): nearly three-fold inhibition; effect on serum TNF in endotoxemic mice ([5]; 1, 2 and 4 mg/kg i.p. 1 h before endotoxin, blood 1.5 h after endotoxin): significantly inhibited serum TNF; mice survived ([6]; 4 mg/kg i.p. six hours before endotoxin): about 75%; increase in survival ([6]; day 14, 1 mg/kg i.p. 1 h before endotoxin): about 15%; increase in survival ([6]; day 14, 2 mg/kg i.p. 1 h before endotoxin): ~25%; increase in survival compared with vehicle control ([6]; day 14, 4 mg/kg i.p. 1 h before endotoxin): about 90%

**Q.** How did the mice survived ([6]; 0.1 mg/kg i.p. 30 minutes before endotoxin) turn out when `CN(C)C(=O)Oc1cccc([N+](C)(C)C)c1` [Neostigmine, Neostigmine methyl sulfate] was run?
**A.** about 50%

Reference: patent publication US8003632B2, “Cholinesterase inhibitors for treating inflammation” (priority 2004, dated 2011)
